Source: patent US20040197865A1, “Gene expression systems and recombinant cell lines” (3M Innovative Properties Company, priority 2002, published 2004)

Molecular target: T1, human TLR6 (Homo sapiens, UniProt Q9Y2C9)
T1 construct: expressed in transfected cells; host or cells: Namalwa cells (ATCC CRL-1432), co-transfected with pIFN-α1-luc and pCI-TLR6, G418-selected
Experiment: Luciferase induction off the IFN-α1 promoter in pIFN-α1-luc/pCI-TLR6 co-transfected Namalwa cells
Assay type: cell-based
Conditions: IRM compound 10 μM, 18 hours, fold increase compared to DMSO negative control, representative experiment
Description: The vector pIFN-α1-luc was constructed by inserting BglII sites at both ends of the human IFN-α1 promoter (SEQ ID NO:21). The BglII sites were inserted into the IFN-α1 promoter and the sequence was amplified using the primer pair of SEQ ID NO:22 and SEQ ID NO:23. The amplified IFN-α1 promoter was cloned into the pGL3-Enhancing vector (Promega Corp., Madison, Wis.) at its BglII site.
The vector pCI-TLR6 was constructed by inserting SEQ ID NO:11 (GenBank Accession No. NM 006068), which includes the human TLR6 coding sequence, into the pCI-neo mammalian expression vector (Promega Corp.) at the vector's NheI and MluI restriction sites.
Burkitt's Lymphoma lymphoblastoid Namalwa cells (ATCC Accession No. CRL-1432) were grown by incubation in culture medium overnight. Cells were harvested by centrifugation in a tabletop centrifuge (1200 RPM for 5 minutes), and then resuspended in phosphate buffered sucrose to a concentration of 1.3×10^7 cells per milliliter.
For each transfection, a 750 μL aliquot of the cell suspension was placed in an electroporation cuvette with 4 mm gaps. 10 μg of the pIFN-α1-luc vector and 10 μg of the pCI-TLR6 vector were added to the electroporation cuvette. The cell and vector mixtures were incubated at room temperature for 5 minutes. The cells were electroporated using a BioRad Gene Pulser (BioRad Laboratories, Hercules, Calif.) set to at 500 μF capacitance and […], then incubated at room temperature for 5 minutes.
The electroporated cells were suspended in 10 mLs of culture medium and incubated overnight. Dead cells and debris were removed after 24 hours using a MACS Dead Cell Removal kit (Miltenyi Biotec, Auburn, Calif.). Cells were resuspended in 10 mLs of culture medium and incubated for an additional 24 hours.
Transfected cells were selected by adding G418 (Promega Corp., Madison, Wis.) to a final concentration of 1 mg/mL and incubating the cells for seven days.
The selected transfected cells were counted and resuspended to a concentration of 1×10^6 cell per mL in culture medium. 100 μl aliquots of cells were placed in the wells of a white-walled, white-bottomed 96-well plate (Corning, Inc. Corning, N.Y.). 1.0 μL of an IRM compound from Table 1 (prepared at 1 mM in 100% DMSO) was added to some cell aliquots so that the final concentration of IRM compound was 10 μM. As a positive control, some cell aliquots were incubated with Sendai virus instead of IRM compound. As a negative control, some cell aliquots were incubated with DMSO without IRM compound. In all cases, the cells were incubated for 18 hours.
The plates were equilibrated to room temperature before 1 volume of reconstituted LucLight Plus (Packard Instruments, Meriden, Conn.) was added to each aliquot of cells. Each well of the plate was read on an LJL Analyst (LJL Biosystems, Inc., Sunnyvale, Calif.) set with a 5 minute dark adapt. The data are expressed as the fold increase in luciferase induction off of the IFN-α1 promoter in cell aliquots incubated with the indicated stimulant compared to the negative control in which the cell aliquots were incubated with only DMSO.

T1 sequence (Q9Y2C9 32-796): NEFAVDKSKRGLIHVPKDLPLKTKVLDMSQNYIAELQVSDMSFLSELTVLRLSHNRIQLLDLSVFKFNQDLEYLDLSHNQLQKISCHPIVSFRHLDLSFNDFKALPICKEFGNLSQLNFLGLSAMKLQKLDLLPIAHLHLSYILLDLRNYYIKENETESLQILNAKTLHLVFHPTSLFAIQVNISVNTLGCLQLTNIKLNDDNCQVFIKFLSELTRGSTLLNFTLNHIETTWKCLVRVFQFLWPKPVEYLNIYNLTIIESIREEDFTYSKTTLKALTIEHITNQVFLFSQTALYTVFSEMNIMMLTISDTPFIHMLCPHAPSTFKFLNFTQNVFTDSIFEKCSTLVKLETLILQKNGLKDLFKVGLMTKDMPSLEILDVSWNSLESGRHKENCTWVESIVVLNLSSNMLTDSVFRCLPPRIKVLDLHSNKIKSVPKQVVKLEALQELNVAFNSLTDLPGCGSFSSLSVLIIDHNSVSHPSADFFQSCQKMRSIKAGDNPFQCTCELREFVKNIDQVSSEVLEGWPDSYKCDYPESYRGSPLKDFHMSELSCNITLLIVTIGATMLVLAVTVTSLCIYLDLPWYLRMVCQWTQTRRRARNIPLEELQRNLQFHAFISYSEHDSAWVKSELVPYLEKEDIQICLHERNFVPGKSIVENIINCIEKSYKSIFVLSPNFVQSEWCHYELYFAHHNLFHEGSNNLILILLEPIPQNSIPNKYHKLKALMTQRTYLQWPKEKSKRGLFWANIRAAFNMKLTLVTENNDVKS
T1 sequence (O60603 19-784 partner limits assumed): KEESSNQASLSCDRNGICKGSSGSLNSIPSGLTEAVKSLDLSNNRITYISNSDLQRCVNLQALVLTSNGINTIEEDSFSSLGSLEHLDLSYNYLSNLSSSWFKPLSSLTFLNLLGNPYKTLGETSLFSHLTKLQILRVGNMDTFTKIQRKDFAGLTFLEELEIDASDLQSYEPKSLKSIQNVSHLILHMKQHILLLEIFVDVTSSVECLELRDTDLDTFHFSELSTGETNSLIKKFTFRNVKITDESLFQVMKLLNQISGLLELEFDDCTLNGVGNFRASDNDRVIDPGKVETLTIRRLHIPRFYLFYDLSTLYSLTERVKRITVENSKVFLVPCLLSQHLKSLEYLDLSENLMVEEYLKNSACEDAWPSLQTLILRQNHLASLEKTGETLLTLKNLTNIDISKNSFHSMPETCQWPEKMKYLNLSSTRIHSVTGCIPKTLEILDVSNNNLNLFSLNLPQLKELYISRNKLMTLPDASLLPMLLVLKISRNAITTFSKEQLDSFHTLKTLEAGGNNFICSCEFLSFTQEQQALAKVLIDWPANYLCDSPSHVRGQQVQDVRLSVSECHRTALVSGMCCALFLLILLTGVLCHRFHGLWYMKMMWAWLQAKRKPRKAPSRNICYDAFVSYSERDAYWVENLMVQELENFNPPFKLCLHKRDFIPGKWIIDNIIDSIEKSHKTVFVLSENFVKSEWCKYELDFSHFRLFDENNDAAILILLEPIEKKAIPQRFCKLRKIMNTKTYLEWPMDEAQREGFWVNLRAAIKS

Question: `CCCCc1nc2c(N)nc3ccccc3c2n1CCCCNS(C)(=O)=O` [IRM3, N-[4-(4-amino-2-butyl-1H-imidazo[4,5-c]quinolin-1-yl)butyl]methanesulfonamide] was tested. Which “Fold Increase in Luciferase Induction” value did it give?
Answer: 2.6

Question: For `Nc1nc2ccccc2c2c1ncn2CCOCCCc1cccnc1` [IRM4, 1-{2-[3-(3-pyridyl)propoxy]ethyl}-1H-imidazo[4,5-c]quinolin-4-amine], which “Fold Increase in Luciferase Induction” value is on record?
Answer: 4.0

Question: `CCCCc1nc2c(N)nc3c(c2n1CC(C)C)NCCC3` [IRM6, 2-butyl-6,7,8,9-tetrahydro-1-(2-methylpropyl)-1H-imidazo[4,5-c][1,5]naphthyridin-4-amine] was tested. Which “Fold Increase in Luciferase Induction” value did it give?
Answer: 2.9

Question: With `CCCCc1nc2c(N)nc3cccnc3c2n1CC(C)C` [IRM5, 2-butyl-1-(2-methylpropyl)-1H-imidazo[4,5-c][1,5]naphthyridin-4-amine] as the molecule, how does the “Fold Increase in Luciferase Induction” value read?
Answer: 3.2

Question: How did the “Fold Increase in Luciferase Induction” value turn out when `CCc1nc2c(N)nc3ccccc3c2n1CCCCCS(C)(=O)=O` [IRM8, 2-ethyl-1-[5-(methylsulfonyl)pentyl]-1H-imidazo[4,5-c]quinolin-4-amine] was run?
Answer: 2.3

Question: `CCOCc1nc2c(N)nc3c(c2n1CC(C)(C)O)CCCC3` [IRM1, 4-amino-2-ethoxymethyl-α,α-dimethyl-6,7,8,9-tetrahydro-1H-imidazo[4,5-c]quinoline-1-ethanol] was tested. Which “Fold Increase in Luciferase Induction” value did it give?
Answer: 3.6

Question: For `COCCc1nc2c(N)nc3ccccc3c2n1CCCCNC(=O)c1ccc(-n2cccc2)nc1` [IRM7, N^3-{4-[4-amino-2-(2-methoxyethyl)-1H-imidazo[4,5-c]quinolin-1-yl]butyl}-6-(1H-1-pyrrolyl)nicotinamide], which “Fold Increase in Luciferase Induction” value is on record?
Answer: 3.2

Question: For `Cc1nc2c(N)nc3ccccc3c2n1CC(C)(C)O` [IRM2, 4-amino-α,α,2-trimethyl-1H-imidazo[4,5-c]quinoline-1-ethanol], which “Fold Increase in Luciferase Induction” value is on record?
Answer: 2.7
